Columns and labels:
Experiment in all cases: relative viability (nuclei count vs DMSO), 5 days (fraction); higher = more cells survive
[1] = tested on: ChaGo-K-1
Outline: (§1)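 The day after seeding in 1536-well plates, lung cancer cell lines were treated by pin tool with a single drug, or with a fixed anchor-drug dose together with five library-drug doses (not always all listed) in √10 steps. After 5 days, a combined fix-and-stain solution (final 0.05% Triton X-100, 1% formaldehyde, 1 ug/ml Hoechst) was added. Nuclei counted on 4× images gave relative viability as treated counts over vehicle counts, reported as the median of duplicate plates.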

[2] = tested on: EMC-BAC-2
Outline: as §1

[3] = tested on: EPLC-272H
Outline: as §1

[4] = tested on: HCC-44
Outline: as §1

[5] = tested on: HOP-62
Outline: as §1

[6] = tested on: LCLC-103H
Outline: as §1

[7] = tested on: LCLC-97TM1
Outline: as §1

[8] = tested on: LOU-NH91
Outline: as §1

[9] = tested on: NCI-H1395
Outline: as §1

[10] = tested on: NCI-H1975
Outline: as §1

[11] = tested on: NCI-H1993
Outline: as §1

[12] = tested on: NCI-H2085
Outline: as §1

[13] = tested on: NCI-H2126
Outline: as §1

[14] = tested on: NCI-H2170
Outline: as §1

[15] = tested on: NCI-H2228
Outline: as §1

[16] = tested on: NCI-H2342
Outline: as §1

[17] = tested on: NCI-H2405
Outline: as §1

[18] = tested on: NCI-H3122
Outline: as §1

[19] = tested on: NCI-H322M
Outline: as §1

[20] = tested on: NCI-H460
Outline: as §1

[21] = tested on: NCI-H520
Outline: as §1

[22] = tested on: NCI-H647
Outline: as §1

[23] = tested on: SK-LU-1
Outline: as §1

Compound: C=C1C(=O)O[C@@H](CCCCCCCC)[C@@H]1C(=O)O [C-75] + CC(=O)c1c(C)c2cnc(Nc3ccc(N4CCNCC4)cn3)nc2n(C2CCCC2)c1=O [Palbociclib] (partner 0.5 µM)
- relative viability ([1]; first compound 0.08 µM): 0.87
- relative viability ([1]; first compound 0.253 µM): 0.894
- relative viability ([1]; first compound 0.8 µM): 0.888
- relative viability ([1]; first compound 2.53 µM): 0.519
- relative viability ([1]; first compound 8 µM): 0.915
- relative viability ([2]; first compound 0.08 µM): 0.522
- relative viability ([2]; first compound 0.253 µM): 0.505
- relative viability ([2]; first compound 0.8 µM): 0.515
- relative viability ([2]; first compound 2.53 µM): 0.438
- relative viability ([2]; first compound 8 µM): 0.521
- relative viability ([3]; first compound 0.08 µM): 0.312
- relative viability ([3]; first compound 0.253 µM): 0.387
- relative viability ([3]; first compound 0.8 µM): 0.333
- relative viability ([3]; first compound 2.53 µM): 0.244
- relative viability ([3]; first compound 8 µM): 0.365
- relative viability ([4]; first compound 0.08 µM): 0.971
- relative viability ([4]; first compound 0.253 µM): 1.1
- relative viability ([4]; first compound 0.8 µM): 1.02
- relative viability ([4]; first compound 2.53 µM): 0.956
- relative viability ([4]; first compound 8 µM): 0.996
- relative viability ([5]; first compound 0.08 µM): 0.46
- relative viability ([5]; first compound 0.253 µM): 0.431
- relative viability ([5]; first compound 0.8 µM): 0.484
- relative viability ([5]; first compound 2.53 µM): 0.361
- relative viability ([5]; first compound 8 µM): 0.413
- relative viability ([6]; first compound 0.08 µM): 0.447
- relative viability ([6]; first compound 0.253 µM): 0.428
- relative viability ([6]; first compound 0.8 µM): 0.499
- relative viability ([6]; first compound 2.53 µM): 0.353
- relative viability ([6]; first compound 8 µM): 0.451
- relative viability ([7]; first compound 0.08 µM): 0.225
- relative viability ([7]; first compound 0.253 µM): 0.261
- relative viability ([7]; first compound 0.8 µM): 0.177
- relative viability ([7]; first compound 2.53 µM): 0.18
- relative viability ([7]; first compound 8 µM): 0.239
- relative viability ([8]; first compound 0.08 µM): 0.534
- relative viability ([8]; first compound 0.253 µM): 0.536
- relative viability ([8]; first compound 0.8 µM): 0.504
- relative viability ([8]; first compound 8 µM): 0.464
- relative viability ([9]; first compound 0.08 µM): 0.586
- relative viability ([9]; first compound 0.253 µM): 0.584
- relative viability ([9]; first compound 2.53 µM): 0.588
- relative viability ([9]; first compound 8 µM): 0.597
- relative viability ([10]; first compound 0.08 µM): 0.67
- relative viability ([10]; first compound 0.253 µM): 0.433
- relative viability ([10]; first compound 0.8 µM): 0.525
- relative viability ([10]; first compound 2.53 µM): 0.484
- relative viability ([10]; first compound 8 µM): 0.581
- relative viability ([11]; first compound 0.08 µM): 0.618
- relative viability ([11]; first compound 0.253 µM): 0.778
- relative viability ([11]; first compound 0.8 µM): 0.719
- relative viability ([11]; first compound 2.53 µM): 0.553
- relative viability ([11]; first compound 8 µM): 0.642
- relative viability ([12]; first compound 0.08 µM): 0.491
- relative viability ([12]; first compound 0.253 µM): 0.403
- relative viability ([12]; first compound 0.8 µM): 0.443
- relative viability ([12]; first compound 2.53 µM): 0.436
- relative viability ([12]; first compound 8 µM): 0.468
- relative viability ([13]; first compound 0.08 µM): 0.348
- relative viability ([13]; first compound 0.253 µM): 0.35
- relative viability ([13]; first compound 0.8 µM): 0.335
- relative viability ([13]; first compound 2.53 µM): 0.349
- relative viability ([13]; first compound 8 µM): 0.339
- relative viability ([14]; first compound 0.08 µM): 0.388
- relative viability ([14]; first compound 0.253 µM): 0.406
- relative viability ([14]; first compound 0.8 µM): 0.377
- relative viability ([14]; first compound 2.53 µM): 0.319
- relative viability ([14]; first compound 8 µM): 0.424
- relative viability ([15]; first compound 0.08 µM): 0.743
- relative viability ([15]; first compound 0.253 µM): 0.988
- relative viability ([15]; first compound 0.8 µM): 0.589
- relative viability ([15]; first compound 2.53 µM): 0.7
- relative viability ([15]; first compound 8 µM): 0.681
- relative viability ([16]; first compound 0.08 µM): 0.546
- relative viability ([16]; first compound 0.253 µM): 0.488
- relative viability ([16]; first compound 0.8 µM): 0.551
- relative viability ([16]; first compound 2.53 µM): 0.541
- relative viability ([16]; first compound 8 µM): 0.571
- relative viability ([17]; first compound 0.08 µM): 0.523
- relative viability ([17]; first compound 0.253 µM): 0.384
- relative viability ([17]; first compound 0.8 µM): 0.557
- relative viability ([17]; first compound 2.53 µM): 0.423
- relative viability ([17]; first compound 8 µM): 0.515
- relative viability ([18]; first compound 0.08 µM): 0.18
- relative viability ([18]; first compound 0.253 µM): 0.193
- relative viability ([18]; first compound 0.8 µM): 0.153
- relative viability ([18]; first compound 2.53 µM): 0.18
- relative viability ([18]; first compound 8 µM): 0.213
- relative viability ([19]; first compound 0.08 µM): 0.481
- relative viability ([19]; first compound 0.253 µM): 0.525
- relative viability ([19]; first compound 0.8 µM): 0.479
- relative viability ([19]; first compound 8 µM): 0.481
- relative viability ([20]; first compound 0.08 µM): 0.0813
- relative viability ([20]; first compound 0.253 µM): 0.104
- relative viability ([20]; first compound 0.8 µM): 0.126
- relative viability ([20]; first compound 2.53 µM): 0.132
- relative viability ([20]; first compound 8 µM): 0.155
- relative viability ([21]; first compound 0.08 µM): 0.186
- relative viability ([21]; first compound 0.253 µM): 0.238
- relative viability ([21]; first compound 0.8 µM): 0.225
- relative viability ([21]; first compound 2.53 µM): 0.225
- relative viability ([21]; first compound 8 µM): 0.211
- relative viability ([22]; first compound 0.08 µM): 0.312
- relative viability ([22]; first compound 0.253 µM): 0.384
- relative viability ([22]; first compound 0.8 µM): 0.394
- relative viability ([22]; first compound 2.53 µM): 0.239
- relative viability ([22]; first compound 8 µM): 0.236
- relative viability ([23]; first compound 0.08 µM): 0.384
- relative viability ([23]; first compound 0.253 µM): 0.43
- relative viability ([23]; first compound 0.8 µM): 0.429
- relative viability ([23]; first compound 2.53 µM): 0.387
- relative viability ([23]; first compound 8 µM): 0.384

Reference: the supplement of paper PMC10307832
